Activity calls are given as the source filed them. Unless noted, no cut-off for these calls is given here.
Key:
Type in all cases: functional
[1] = system: Aspergillus niger; assay: Antimicrobial activity against Aspergillus niger MTCC 281 at 1000 ug/ml after 72 hrs by cup plate method; conditions: MTCC 281, 72 h, read-out: IZ
[2] = system: Aspergillus niger; assay: Antimicrobial activity against Aspergillus niger MTCC 281 at 750 ug/ml after 72 hrs by cup plate method; conditions: MTCC 281, 72 h, read-out: IZ
[3] = system: Staphylococcus aureus; assay: Antimicrobial activity against Staphylococcus aureus ATCC 29513 at 1000 ug/ml after 24 hrs by cup plate method; conditions: ATCC 29513, 24 h, read-out: IZ
[4] = system: Aspergillus flavus; assay: Antimicrobial activity against Aspergillus flavus MTCC 1973 at 750 ug/ml after 72 hrs by cup plate method; conditions: MTCC 1973, 72 h, read-out: IZ
[5] = system: Aspergillus terreus; assay: Antimicrobial activity against Aspergillus terreus MTCC 1782 at 500 ug/ml after 72 hrs by cup plate method; conditions: MTCC 1782, 72 h, read-out: IZ
[6] = system: Klebsiella pneumoniae; assay: Antimicrobial activity against Klebsiella pneumoniae NCTC 13368 at 750 ug/ml after 24 hrs by cup plate method; conditions: NCTC 13368, 24 h, read-out: IZ
[7] = system: Aspergillus flavus; assay: Antimicrobial activity against Aspergillus flavus MTCC 1973 at 500 ug/ml after 72 hrs by cup plate method; conditions: MTCC 1973, 72 h, read-out: IZ
[8] = system: Aspergillus oryzae; assay: Antimicrobial activity against Aspergillus oryzae MTCC 3567 at 1000 ug/ml after 72 hrs by cup plate method; conditions: MTCC 3567, 72 h, read-out: IZ
[9] = system: Klebsiella pneumoniae; assay: Antimicrobial activity against Klebsiella pneumoniae NCTC 13368 at 500 ug/ml after 24 hrs by cup plate method; conditions: NCTC 13368, 24 h, read-out: IZ
[10] = system: Pseudomonas aeruginosa; assay: Antimicrobial activity against Pseudomonas aeruginosa MTCC 1688 at 1000 ug/ml after 24 hrs by cup plate method; conditions: MTCC 1688, 24 h, read-out: IZ
[11] = system: Aspergillus terreus; assay: Antimicrobial activity against Aspergillus terreus MTCC 1782 at 1000 ug/ml after 72 hrs by cup plate method; conditions: MTCC 1782, 72 h, read-out: IZ
[12] = system: Aspergillus niger; assay: Antimicrobial activity against Aspergillus niger MTCC 281 at 500 ug/ml after 72 hrs by cup plate method; conditions: MTCC 281, 72 h, read-out: IZ
[13] = system: Aspergillus oryzae; assay: Antimicrobial activity against Aspergillus oryzae MTCC 3567 at 500 ug/ml after 72 hrs by cup plate method; conditions: MTCC 3567, 72 h, read-out: IZ
[14] = system: Escherichia coli; assay: Antimicrobial activity against Escherichia coli MTCC 723 at 1000 ug/ml after 24 hrs by cup plate method; conditions: MTCC 723, 24 h, read-out: IZ
[15] = system: Aspergillus oryzae; assay: Antimicrobial activity against Aspergillus oryzae MTCC 3567 at 750 ug/ml after 72 hrs by cup plate method; conditions: MTCC 3567, 72 h, read-out: IZ
[16] = Antioxidant activity assessed as metal chelating activity by measuring inhibition of ferrozine-Fe2+ complex formation at 25 to 100 ug/ml
[17] = system: Aspergillus terreus; assay: Antimicrobial activity against Aspergillus terreus MTCC 1782 at 750 ug/ml after 72 hrs by cup plate method; conditions: MTCC 1782, 72 h, read-out: IZ
[18] = Antioxidant activity assessed as ferric ion reducing activity at 100 ug/ml by FRAP assay
[19] = system: Klebsiella pneumoniae; assay: Antimicrobial activity against Klebsiella pneumoniae NCTC 13368 at 1000 ug/ml after 24 hrs by cup plate method; conditions: NCTC 13368, 24 h, read-out: IZ
[20] = system: Staphylococcus aureus; assay: Antimicrobial activity against Staphylococcus aureus ATCC 29513 at 500 ug/ml after 24 hrs by cup plate method; conditions: ATCC 29513, 24 h, read-out: IZ
[21] = system: Pseudomonas aeruginosa; assay: Antimicrobial activity against Pseudomonas aeruginosa MTCC 1688 at 500 ug/ml after 24 hrs by cup plate method; conditions: MTCC 1688, 24 h, read-out: IZ
[22] = system: Escherichia coli; assay: Antimicrobial activity against Escherichia coli MTCC 723 at 750 ug/ml after 24 hrs by cup plate method; conditions: MTCC 723, 24 h, read-out: IZ
[23] = system: Aspergillus flavus; assay: Antimicrobial activity against Aspergillus flavus MTCC 1973 at 1000 ug/ml after 72 hrs by cup plate method; conditions: MTCC 1973, 72 h, read-out: IZ
[24] = system: Escherichia coli; assay: Antimicrobial activity against Escherichia coli MTCC 723 at 500 ug/ml after 24 hrs by cup plate method; conditions: MTCC 723, 24 h, read-out: IZ
[25] = system: Pseudomonas aeruginosa; assay: Antimicrobial activity against Pseudomonas aeruginosa MTCC 1688 at 750 ug/ml after 24 hrs by cup plate method; conditions: MTCC 1688, 24 h, read-out: IZ
[26] = system: Staphylococcus aureus; assay: Antimicrobial activity against Staphylococcus aureus ATCC 29513 at 750 ug/ml after 24 hrs by cup plate method; conditions: ATCC 29513, 24 h, read-out: IZ
[27] = system: Radical scavenging activity; assay: Antioxidant activity assessed as DPPH radical scavenging activity at 100 ug/ml

Cc1ccc(C2=CC(c3c(-c4ccccc4)[nH]c4ccccc34)C(C#N)=C(N)O2)cc1 (stereo not given)
zone of inhibition at 1000 µg/mL [1]: 8 mm | zone of inhibition at 750 µg/mL [2]: 8 mm | zone of inhibition at 1000 µg/mL [3]: 0 mm | zone of inhibition at 750 µg/mL [4]: 9 mm | zone of inhibition at 500 µg/mL [5]: 8 mm | zone of inhibition at 750 µg/mL [6]: 6 mm | zone of inhibition at 500 µg/mL [7]: 8 mm | zone of inhibition at 1000 µg/mL [8]: 8 mm | zone of inhibition at 500 µg/mL [9]: 8 mm | zone of inhibition at 1000 µg/mL [10]: 6 mm | zone of inhibition at 1000 µg/mL [11]: 5 mm | zone of inhibition at 500 µg/mL [12]: 8 mm | zone of inhibition at 500 µg/mL [13]: 5 mm | zone of inhibition at 1000 µg/mL [14]: 10 mm | zone of inhibition at 750 µg/mL [15]: 9 mm | Activity [16]: Active | zone of inhibition at 750 µg/mL [17]: 6 mm | Activity [18]: Active | zone of inhibition at 1000 µg/mL [19]: 5 mm | zone of inhibition at 500 µg/mL [20]: 0 mm | zone of inhibition at 500 µg/mL [21]: 9 mm | zone of inhibition at 750 µg/mL [22]: 10 mm | zone of inhibition at 1000 µg/mL [23]: 10 mm | zone of inhibition at 500 µg/mL [24]: 10 mm | zone of inhibition at 750 µg/mL [25]: 8 mm | zone of inhibition at 750 µg/mL [26]: 0 mm

Cc1ccc2[nH]c(-c3ccccc3)c(C3C=C(c4ccc(Cl)cc4)Oc4[nH]nc(N)c43)c2c1 (stereo not given)
zone of inhibition at 1000 µg/mL [1]: 2 mm | zone of inhibition at 750 µg/mL [2]: 3 mm | zone of inhibition at 1000 µg/mL [3]: 0 mm | zone of inhibition at 750 µg/mL [4]: 5 mm | zone of inhibition at 500 µg/mL [5]: 10 mm | zone of inhibition at 750 µg/mL [6]: 12 mm | zone of inhibition at 500 µg/mL [7]: 5 mm | zone of inhibition at 1000 µg/mL [8]: 7 mm | zone of inhibition at 500 µg/mL [9]: 12 mm | zone of inhibition at 1000 µg/mL [10]: 5 mm | zone of inhibition at 1000 µg/mL [11]: 10 mm | zone of inhibition at 500 µg/mL [12]: 5 mm | zone of inhibition at 500 µg/mL [13]: 8 mm | zone of inhibition at 1000 µg/mL [14]: 8 mm | zone of inhibition at 750 µg/mL [15]: 7 mm | Activity [16]: Active | zone of inhibition at 750 µg/mL [17]: 10 mm | Activity [27]: Active | zone of inhibition at 1000 µg/mL [19]: 12 mm | zone of inhibition at 500 µg/mL [20]: 2 mm | zone of inhibition at 500 µg/mL [21]: 6 mm | zone of inhibition at 750 µg/mL [22]: 8 mm | zone of inhibition at 1000 µg/mL [23]: 2 mm | zone of inhibition at 500 µg/mL [24]: 9 mm | zone of inhibition at 750 µg/mL [25]: 6 mm | zone of inhibition at 750 µg/mL [26]: 0 mm

Cc1ccc(C2=CC(c3c(-c4ccccc4)[nH]c4ccc(Cl)cc34)c3c(N)n[nH]c3O2)cc1 (stereo not given)
zone of inhibition at 1000 µg/mL [1]: 0 mm | zone of inhibition at 750 µg/mL [2]: 8 mm | zone of inhibition at 1000 µg/mL [3]: 14 mm | zone of inhibition at 750 µg/mL [4]: 3 mm | zone of inhibition at 500 µg/mL [5]: 5 mm | zone of inhibition at 750 µg/mL [6]: 12 mm | zone of inhibition at 500 µg/mL [7]: 3 mm | zone of inhibition at 1000 µg/mL [8]: 5 mm | zone of inhibition at 500 µg/mL [9]: 12 mm | zone of inhibition at 1000 µg/mL [10]: 13 mm | zone of inhibition at 1000 µg/mL [11]: 4 mm | zone of inhibition at 500 µg/mL [12]: 9 mm | zone of inhibition at 500 µg/mL [13]: 8 mm | zone of inhibition at 1000 µg/mL [14]: 2 mm | zone of inhibition at 750 µg/mL [15]: 5 mm | Activity [16]: Active | zone of inhibition at 750 µg/mL [17]: 4 mm | Activity [18]: Active | zone of inhibition at 1000 µg/mL [19]: 12 mm | zone of inhibition at 500 µg/mL [20]: 14 mm | zone of inhibition at 500 µg/mL [21]: 12 mm | zone of inhibition at 750 µg/mL [22]: 2 mm | zone of inhibition at 1000 µg/mL [23]: 3 mm | zone of inhibition at 500 µg/mL [24]: 4 mm | zone of inhibition at 750 µg/mL [25]: 12 mm | zone of inhibition at 750 µg/mL [26]: 14 mm

Cc1ccc2[nH]c(-c3ccccc3)c(C3C=C(c4ccccc4)Oc4nc[nH]c(=O)c43)c2c1 (stereo not given)
zone of inhibition at 1000 µg/mL [1]: 4 mm | zone of inhibition at 750 µg/mL [2]: 4 mm | zone of inhibition at 1000 µg/mL [3]: 10 mm | zone of inhibition at 750 µg/mL [4]: 8 mm | zone of inhibition at 500 µg/mL [5]: 4 mm | zone of inhibition at 750 µg/mL [6]: 5 mm | zone of inhibition at 500 µg/mL [7]: 8 mm | zone of inhibition at 1000 µg/mL [8]: 9 mm | zone of inhibition at 500 µg/mL [9]: 5 mm | zone of inhibition at 1000 µg/mL [10]: 5 mm | zone of inhibition at 1000 µg/mL [11]: 3 mm | zone of inhibition at 500 µg/mL [12]: 5 mm | zone of inhibition at 500 µg/mL [13]: 9 mm | zone of inhibition at 1000 µg/mL [14]: 6 mm | zone of inhibition at 750 µg/mL [15]: 9 mm | Activity [16]: Active | zone of inhibition at 750 µg/mL [17]: 3 mm | Activity [18]: Active | zone of inhibition at 1000 µg/mL [19]: 5 mm | zone of inhibition at 500 µg/mL [20]: 11 mm | zone of inhibition at 500 µg/mL [21]: 5 mm | zone of inhibition at 750 µg/mL [22]: 6 mm | zone of inhibition at 1000 µg/mL [23]: 8 mm | zone of inhibition at 500 µg/mL [24]: 8 mm | zone of inhibition at 750 µg/mL [25]: 5 mm | zone of inhibition at 750 µg/mL [26]: 10 mm

N#CC1=C(N)OC(c2ccccc2)=CC1c1c(-c2ccccc2)[nH]c2ccccc12 (stereo not given)
zone of inhibition at 1000 µg/mL [1]: 10 mm | zone of inhibition at 750 µg/mL [2]: 5 mm | zone of inhibition at 1000 µg/mL [3]: 10 mm | zone of inhibition at 750 µg/mL [4]: 10 mm | zone of inhibition at 500 µg/mL [5]: 9 mm | zone of inhibition at 750 µg/mL [6]: 13 mm | zone of inhibition at 500 µg/mL [7]: 10 mm | zone of inhibition at 1000 µg/mL [8]: 5 mm | zone of inhibition at 500 µg/mL [9]: 13 mm | zone of inhibition at 1000 µg/mL [10]: 9 mm | zone of inhibition at 1000 µg/mL [11]: 3 mm | zone of inhibition at 500 µg/mL [12]: 6 mm | zone of inhibition at 500 µg/mL [13]: 9 mm | zone of inhibition at 1000 µg/mL [14]: 8 mm | zone of inhibition at 750 µg/mL [15]: 9 mm | Activity [16]: Active | zone of inhibition at 750 µg/mL [17]: 5 mm | Activity [27]: Active | zone of inhibition at 1000 µg/mL [19]: 13 mm | zone of inhibition at 500 µg/mL [20]: 10 mm | zone of inhibition at 500 µg/mL [21]: 9 mm | zone of inhibition at 750 µg/mL [22]: 8 mm | zone of inhibition at 1000 µg/mL [23]: 10 mm | zone of inhibition at 500 µg/mL [24]: 10 mm | zone of inhibition at 750 µg/mL [25]: 9 mm | zone of inhibition at 750 µg/mL [26]: 10 mm
